Assay results published in ChEMBL document CHEMBL1201862, “PubChem BioAssay data set” (2004).
Values belong to the molecule of their own block, whether it stands above or below them. Active and inactive are the calls of the source.

What was measured:
INS1 = test: beta cell apoptosis inhibitors, cytokine rescue, dose response, luminescence, retest (AID 449756); assay type: functional, cell-based; settings: Rattus norvegicus;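 further: cell death triggered by IL-1 beta plus TNF-alpha plus IFN-gamma mixture; protective hits raise ATP signal compared with cytokine alone wells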
[1] = Luminescence Cell-Based Dose Retest to Confirm Inhibitors of Cancer Stem Cells. [Related pubchem assays (depositor defined):AID2717, AID2721]; assay type: functional; settings: Homo sapiens
Melanocortin receptor 4 = Melanocortin receptor 4 (Homo sapiens, UniProt P32245); assay type: functional, cell-based;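 further: Cell-based assay with luminescence read-out, confirmatory dose-response testing for agonist activity of biased ligands at MC4R; human U2OS cells with tagged receptor and beta-arrestin; potency of agonists that increase receptor coupling to beta-arrestin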
Integrin alpha-4 = Integrin alpha-4 (Homo sapiens, UniProt P13612); test: VLA-4 integrin allosteric ligands, SAR follow-up, cell-based, LIBS antibody binding, flow cytometry (AID 488791); assay type: functional
[2] = target: Multidrug resistance protein CDR2 (Candida albicans (strain SC5314 / ATCC MYA-2876) (Yeast), UniProt P78595); test: CaCDR2 efflux pump inhibitors in yeast, dose response, S. cerevisiae AD1-8u, singleplex, Cherry Pick2 set (AID 623994); assay type: functional; settings: read-out: EC50_MICROM
[3] = target: T1, Ubiquitin-conjugating enzyme E2 N (Homo sapiens, UniProt P61088); assay type: functional;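 further: Dose-response confirmation in a TR-FRET assay detecting UBC13-driven polyubiquitin chain formation, inhibition measured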
T1 sequence (P61088 whole entry): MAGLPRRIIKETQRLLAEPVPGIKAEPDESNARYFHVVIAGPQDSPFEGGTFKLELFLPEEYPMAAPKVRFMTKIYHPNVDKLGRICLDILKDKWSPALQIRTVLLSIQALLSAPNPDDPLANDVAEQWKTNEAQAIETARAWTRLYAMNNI

Paired box protein Pax-8 = Paired box protein Pax-8 (Homo sapiens, UniProt Q06710); test: inhibitors of PAX8-driven TPO luciferase reporter, dose response, RMG-I cells, cherry-pick (AID 687027); assay type: functional, cell-based;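 further: luciferase reporter driven by Pax8 target thyroperoxidase promoter measured by SteadyGlo luminescence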
[4] = non-specific cell cytotoxicity, dose response, cytotoxicity control for PAX8 inhibitor project, plate reader, dry powder samples (AID 743021); assay type: functional, cell-based
[5] = cytotoxicity in HEK-293T cells, dose response, cytotoxicity control for TCR NF-kB inhibitor project, luminescence, T-cell screen hits (AID 489026); assay type: functional, cell-based;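 further: cells exposed to compound about 14 hours before the viability readout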
[6] = target: E3 ubiquitin-protein ligase Mdm2/Protein Mdm4 (Homo sapiens, UniProt O15151+Q00987); test: Mdm2-MdmX interaction inhibitors, dose response, luminescence detection (AID 504593); assay type: functional
[7] = target: T2, Corticotropin-releasing factor receptor 2/Corticotropin-releasing factor-binding protein (Homo sapiens, UniProt P24387+Q13324); test: activators of CRF receptor 2 with binding protein – uHTS hits, confirmation (AID 602473); assay type: functional; settings: read-out: EC50_Mean
T2 sequence (Q13324 whole entry): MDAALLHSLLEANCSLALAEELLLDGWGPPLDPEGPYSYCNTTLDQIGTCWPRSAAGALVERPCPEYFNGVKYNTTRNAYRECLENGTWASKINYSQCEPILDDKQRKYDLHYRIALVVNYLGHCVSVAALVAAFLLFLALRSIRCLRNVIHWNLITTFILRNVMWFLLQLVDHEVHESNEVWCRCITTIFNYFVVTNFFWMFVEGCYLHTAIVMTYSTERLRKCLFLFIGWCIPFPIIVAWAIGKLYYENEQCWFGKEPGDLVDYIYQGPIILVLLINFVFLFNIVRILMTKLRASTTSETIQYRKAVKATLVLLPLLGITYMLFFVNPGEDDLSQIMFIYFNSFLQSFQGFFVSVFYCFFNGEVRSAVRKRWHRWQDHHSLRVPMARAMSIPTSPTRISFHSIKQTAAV
T2 sequence (P24387 whole entry): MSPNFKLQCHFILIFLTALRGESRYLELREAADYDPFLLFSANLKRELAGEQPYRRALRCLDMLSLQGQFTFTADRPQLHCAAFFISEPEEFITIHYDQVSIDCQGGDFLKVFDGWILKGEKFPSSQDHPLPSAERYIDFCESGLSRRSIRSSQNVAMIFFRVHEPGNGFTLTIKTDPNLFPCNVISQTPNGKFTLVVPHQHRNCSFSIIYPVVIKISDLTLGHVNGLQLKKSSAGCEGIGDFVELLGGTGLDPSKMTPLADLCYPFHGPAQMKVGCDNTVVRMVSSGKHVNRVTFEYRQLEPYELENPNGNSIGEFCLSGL

[8] = CRF-BP/CRF-R2 complex antagonists, dose response, cell-based, uHTS hits, 384-well (AID 651639); assay type: functional, Homo sapiens; settings: read-out: IC50_Mean
[9] = target: Envelope glycoprotein gp160 (Human immunodeficiency virus 1, UniProt Q6QLK5); test: inhibitors of HIV fusion peptide binding, primary screen, biochemical, uHTS, fluorescence dequenching (AID 1986)
[10] = target: T3, Carboxy-terminal domain RNA polymerase II polypeptide A small phosphatase 1 (Homo sapiens, UniProt Q9GZU7); test: inhibitors of CTDSP1, concentration-response testing, biochemical assay, absorbance-based, actives from ultra-high-throughput screening (AID 540297); assay type: functional
T3 sequence (Q9GZU7 whole entry): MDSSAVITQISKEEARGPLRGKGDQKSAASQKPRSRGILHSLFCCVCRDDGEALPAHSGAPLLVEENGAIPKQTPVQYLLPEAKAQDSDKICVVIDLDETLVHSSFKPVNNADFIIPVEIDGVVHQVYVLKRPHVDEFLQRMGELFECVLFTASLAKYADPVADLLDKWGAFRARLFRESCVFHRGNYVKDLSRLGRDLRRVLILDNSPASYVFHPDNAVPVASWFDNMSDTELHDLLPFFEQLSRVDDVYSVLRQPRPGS

[11] = target: T2, Corticotropin-releasing factor receptor 2/Corticotropin-releasing factor-binding protein; test: Dose Response confirmation of uHTS hits for small molecule antagonists of the CRF-binding protein and CRF-R2 receptor complex.; assay type: functional; settings: read-out: IC50_Mean
[12] = target: Alkaline phosphatase, placental type (Homo sapiens, UniProt P05187); test: PLAP enzyme inhibitors, confirmation, biochemical, luminescence (AID 1512); assay type: functional
[13] = target: Glyceraldehyde-3-phosphate dehydrogenase (Homo sapiens, UniProt P04406)
[14] = target: Eukaryotic translation initiation factor 4H (Homo sapiens, UniProt Q15056); test: eIF4H inhibition in translation initiation, SAR follow-up (AID 435011); assay type: functional
[15] = target: Polyadenylate-binding protein 1 (Homo sapiens, UniProt P11940); test: PABP inhibition in translation initiation, SAR follow-up (AID 435018); assay type: functional
Polyadenylate-binding protein 1, sequence (P11940 whole entry): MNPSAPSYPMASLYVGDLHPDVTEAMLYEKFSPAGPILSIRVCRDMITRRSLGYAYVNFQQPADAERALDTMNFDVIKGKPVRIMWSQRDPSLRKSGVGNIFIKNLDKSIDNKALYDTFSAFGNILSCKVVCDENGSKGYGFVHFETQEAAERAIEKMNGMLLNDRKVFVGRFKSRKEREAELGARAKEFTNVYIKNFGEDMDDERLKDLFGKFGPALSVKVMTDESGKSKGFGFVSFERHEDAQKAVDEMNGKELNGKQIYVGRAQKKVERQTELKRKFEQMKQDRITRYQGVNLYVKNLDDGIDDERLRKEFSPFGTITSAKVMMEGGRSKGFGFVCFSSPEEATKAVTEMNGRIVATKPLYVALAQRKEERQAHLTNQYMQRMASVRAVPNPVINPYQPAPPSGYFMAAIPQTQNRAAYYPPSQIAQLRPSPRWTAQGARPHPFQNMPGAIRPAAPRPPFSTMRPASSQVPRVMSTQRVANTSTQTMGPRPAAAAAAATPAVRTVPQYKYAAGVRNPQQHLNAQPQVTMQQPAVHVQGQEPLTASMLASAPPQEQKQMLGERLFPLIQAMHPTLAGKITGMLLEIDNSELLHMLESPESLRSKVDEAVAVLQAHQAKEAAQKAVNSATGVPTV

Envelope glycoprotein gp160, sequence (Q6QLK5 whole entry, the tested form may be a part): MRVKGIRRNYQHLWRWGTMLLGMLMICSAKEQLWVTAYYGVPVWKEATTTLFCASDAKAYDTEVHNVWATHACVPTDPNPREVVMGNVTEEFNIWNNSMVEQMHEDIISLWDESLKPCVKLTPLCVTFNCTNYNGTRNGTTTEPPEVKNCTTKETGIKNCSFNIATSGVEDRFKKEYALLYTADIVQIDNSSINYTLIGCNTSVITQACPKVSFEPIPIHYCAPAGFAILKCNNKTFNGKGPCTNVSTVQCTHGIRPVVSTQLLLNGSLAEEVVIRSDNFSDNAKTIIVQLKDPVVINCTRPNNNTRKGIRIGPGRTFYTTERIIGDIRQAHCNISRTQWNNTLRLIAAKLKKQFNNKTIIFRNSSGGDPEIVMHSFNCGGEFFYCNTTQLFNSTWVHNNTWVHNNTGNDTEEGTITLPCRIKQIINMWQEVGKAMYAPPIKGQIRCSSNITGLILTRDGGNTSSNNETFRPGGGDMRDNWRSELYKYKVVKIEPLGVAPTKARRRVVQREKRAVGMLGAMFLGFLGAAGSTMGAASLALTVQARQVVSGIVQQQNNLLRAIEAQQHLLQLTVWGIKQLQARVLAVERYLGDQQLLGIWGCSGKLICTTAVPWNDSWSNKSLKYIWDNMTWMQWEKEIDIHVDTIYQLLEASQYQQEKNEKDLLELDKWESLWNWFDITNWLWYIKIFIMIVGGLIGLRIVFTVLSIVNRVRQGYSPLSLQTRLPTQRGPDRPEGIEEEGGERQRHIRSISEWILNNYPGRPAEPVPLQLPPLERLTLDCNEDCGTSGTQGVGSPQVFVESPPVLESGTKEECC
E3 ubiquitin-protein ligase Mdm2/Protein Mdm4, sequence (Q00987 whole entry): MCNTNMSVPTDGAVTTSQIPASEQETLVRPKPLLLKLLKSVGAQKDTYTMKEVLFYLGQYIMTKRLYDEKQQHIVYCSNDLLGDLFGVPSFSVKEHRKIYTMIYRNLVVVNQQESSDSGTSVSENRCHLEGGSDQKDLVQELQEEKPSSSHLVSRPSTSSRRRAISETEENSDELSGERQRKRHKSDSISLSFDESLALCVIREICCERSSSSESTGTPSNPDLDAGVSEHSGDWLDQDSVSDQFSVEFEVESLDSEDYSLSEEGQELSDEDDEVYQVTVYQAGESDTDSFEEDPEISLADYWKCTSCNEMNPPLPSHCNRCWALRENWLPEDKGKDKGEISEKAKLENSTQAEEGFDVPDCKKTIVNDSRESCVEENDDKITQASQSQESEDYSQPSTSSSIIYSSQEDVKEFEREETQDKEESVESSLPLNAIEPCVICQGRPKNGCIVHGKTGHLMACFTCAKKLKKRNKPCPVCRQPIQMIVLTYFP
E3 ubiquitin-protein ligase Mdm2/Protein Mdm4, sequence (O15151 whole entry): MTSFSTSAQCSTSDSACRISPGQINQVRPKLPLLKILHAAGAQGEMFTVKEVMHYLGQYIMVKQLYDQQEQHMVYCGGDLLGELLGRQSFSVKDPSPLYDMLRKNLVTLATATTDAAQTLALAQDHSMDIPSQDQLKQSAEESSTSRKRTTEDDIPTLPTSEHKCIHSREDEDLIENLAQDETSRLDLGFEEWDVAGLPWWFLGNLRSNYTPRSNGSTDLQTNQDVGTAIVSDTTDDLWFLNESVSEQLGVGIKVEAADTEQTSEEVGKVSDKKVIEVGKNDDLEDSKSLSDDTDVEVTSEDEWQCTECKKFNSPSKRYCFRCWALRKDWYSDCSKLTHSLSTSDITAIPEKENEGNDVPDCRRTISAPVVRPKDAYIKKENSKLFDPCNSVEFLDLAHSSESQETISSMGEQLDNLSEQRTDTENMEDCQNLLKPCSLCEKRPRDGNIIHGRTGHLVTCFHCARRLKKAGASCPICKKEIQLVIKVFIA
Glyceraldehyde-3-phosphate dehydrogenase, sequence (P04406 whole entry): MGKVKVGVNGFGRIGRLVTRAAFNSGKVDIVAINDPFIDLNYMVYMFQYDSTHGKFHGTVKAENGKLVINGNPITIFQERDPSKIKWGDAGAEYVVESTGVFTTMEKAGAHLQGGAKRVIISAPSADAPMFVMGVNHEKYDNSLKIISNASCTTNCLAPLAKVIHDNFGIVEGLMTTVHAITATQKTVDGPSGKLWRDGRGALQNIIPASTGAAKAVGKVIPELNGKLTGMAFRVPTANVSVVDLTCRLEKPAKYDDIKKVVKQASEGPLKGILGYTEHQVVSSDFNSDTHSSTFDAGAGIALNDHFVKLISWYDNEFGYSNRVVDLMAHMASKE
Multidrug resistance protein CDR2, sequence (P78595 whole entry): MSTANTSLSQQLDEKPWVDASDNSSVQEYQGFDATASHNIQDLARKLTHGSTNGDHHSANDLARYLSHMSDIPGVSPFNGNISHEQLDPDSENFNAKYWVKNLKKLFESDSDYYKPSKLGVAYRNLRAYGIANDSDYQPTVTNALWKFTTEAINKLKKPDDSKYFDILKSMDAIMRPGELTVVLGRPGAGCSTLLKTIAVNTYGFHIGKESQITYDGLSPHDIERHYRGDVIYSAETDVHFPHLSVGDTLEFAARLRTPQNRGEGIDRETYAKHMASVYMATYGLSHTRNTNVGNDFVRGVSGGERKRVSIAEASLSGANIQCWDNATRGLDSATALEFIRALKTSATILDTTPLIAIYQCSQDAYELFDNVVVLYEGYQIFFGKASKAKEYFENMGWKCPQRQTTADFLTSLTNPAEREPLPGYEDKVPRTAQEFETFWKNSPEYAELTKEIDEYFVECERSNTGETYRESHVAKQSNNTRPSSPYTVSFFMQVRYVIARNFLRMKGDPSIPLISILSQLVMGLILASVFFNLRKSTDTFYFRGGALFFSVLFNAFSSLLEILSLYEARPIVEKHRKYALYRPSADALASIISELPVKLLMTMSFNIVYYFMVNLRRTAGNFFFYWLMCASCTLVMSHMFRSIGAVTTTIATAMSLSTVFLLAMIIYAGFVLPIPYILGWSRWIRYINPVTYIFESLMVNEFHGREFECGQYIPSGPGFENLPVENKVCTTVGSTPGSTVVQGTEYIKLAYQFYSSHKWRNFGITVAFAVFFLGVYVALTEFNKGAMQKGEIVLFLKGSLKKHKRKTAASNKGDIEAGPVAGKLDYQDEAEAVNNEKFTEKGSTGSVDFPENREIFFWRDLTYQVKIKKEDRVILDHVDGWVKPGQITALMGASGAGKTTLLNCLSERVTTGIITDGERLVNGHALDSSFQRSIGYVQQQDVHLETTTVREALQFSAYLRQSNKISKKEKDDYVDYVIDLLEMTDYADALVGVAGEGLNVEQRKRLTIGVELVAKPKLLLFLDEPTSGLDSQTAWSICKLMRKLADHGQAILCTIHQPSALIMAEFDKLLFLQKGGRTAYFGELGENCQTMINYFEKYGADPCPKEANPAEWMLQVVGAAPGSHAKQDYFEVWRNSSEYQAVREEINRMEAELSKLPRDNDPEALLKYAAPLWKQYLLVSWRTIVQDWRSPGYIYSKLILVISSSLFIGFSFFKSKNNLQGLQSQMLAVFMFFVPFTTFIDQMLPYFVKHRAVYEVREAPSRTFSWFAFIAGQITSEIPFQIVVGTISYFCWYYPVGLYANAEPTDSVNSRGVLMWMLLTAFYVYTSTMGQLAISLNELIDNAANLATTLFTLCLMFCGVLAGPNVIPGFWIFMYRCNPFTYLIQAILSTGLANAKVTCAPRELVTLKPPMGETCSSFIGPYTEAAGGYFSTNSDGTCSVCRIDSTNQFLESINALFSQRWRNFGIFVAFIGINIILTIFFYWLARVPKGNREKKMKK
Paired box protein Pax-8, sequence (Q06710 whole entry): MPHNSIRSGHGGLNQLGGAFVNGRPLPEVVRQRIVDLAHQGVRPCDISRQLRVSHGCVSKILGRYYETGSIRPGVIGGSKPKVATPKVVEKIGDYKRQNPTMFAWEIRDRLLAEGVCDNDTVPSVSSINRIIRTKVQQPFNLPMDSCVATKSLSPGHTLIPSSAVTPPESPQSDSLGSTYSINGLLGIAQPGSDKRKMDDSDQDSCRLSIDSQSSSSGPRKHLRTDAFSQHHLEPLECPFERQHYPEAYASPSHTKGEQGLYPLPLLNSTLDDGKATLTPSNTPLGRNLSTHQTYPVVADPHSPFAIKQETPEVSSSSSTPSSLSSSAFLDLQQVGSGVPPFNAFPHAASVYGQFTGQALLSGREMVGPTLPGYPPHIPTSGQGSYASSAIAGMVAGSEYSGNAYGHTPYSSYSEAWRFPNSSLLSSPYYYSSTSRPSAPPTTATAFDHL

Compound: COc1ccc(-c2sc3ccccc3c2-c2ccc(OCCN(C)C)cc2)cc1
AC50 (INS1): 8.01 µM (active)
AC50 [1]: 3.45 µM (active)
EC50 (Melanocortin receptor 4): > 89.2 µM (inactive)
EC50 (Integrin alpha-4): > 57 µM (inactive)
EC50 [2]: 57.1 µM (active)
IC50 [3]: > 20 µM (inactive)
AC50 (Paired box protein Pax-8): 13 µM (active)
AC50 [4]: 1.69 µM (active)

Compound: CCOC(=O)c1ccc(Nc2nc(N)c3cc(OC)c(OC)cc3n2)cc1
IC50 [5]: > 80 µM (inactive)
IC50 [6]: > 79 µM (inactive)

EC50 [7]: > 53 µM (inactive)
IC50 [8]: 4.48 µM (active)
IC50 [9]: > 99 µM (inactive)
IC50 [10]: 3.15 µM (active)
IC50 [11]: 1.84 µM (active)
Compound: COc1cc(/C=C2\C(=N)N3N=C(S(C)(=O)=O)SC3=NC2=O)ccc1OCCOc1ccc(C)cc1

IC50 [12]: > 100 µM (inactive)
IC50 [13]: > 100 µM (not active)
Compound: O=C1c2ccccc2C(=O)N1c1nc(Cc2ccccc2)n[nH]1

Compound: COc1cc(Cl)c(C)cc1NC(=O)COC(=O)c1ccc(NC(N)=O)cc1
IC50 [14]: > 100 µM (inactive)
IC50 [15]: > 100 µM (inactive)
